Results taken from PMC8074941, “Synthesis of cyclotetrapeptide analogues of c-PLAI and evaluation of their antimicrobial properties” (Royal Society Open Science, 2021).
In brackets after ≈: the same amount, converted by molar mass. Where a SMILES comes first, the peptide text is derived from it.

How the values were obtained:
[1] = head-to-tail lactamisation of linear tetrapeptide (N-terminal Pro amine + C-terminal Ile acid), HATU (2 equiv), DIPEA (3 equiv); conditions: the molecule shown is the open-chain precursor; 12-membered ring; CH2Cl2 (with ca. 0.2-0.5% DMF); 0.4 mM; 25.0 °C; 1.5 h
Microsporum andouinii = conditions: synthetic product of solution-phase synthesis; strain not given; cited from earlier work
From the text: (§1) c-PLAI [cyclo(pro-leu-ala-ile)] is a cyclotetrapeptide that was isolated by Rungprom and co-workers in 2008 from marine Pseudomonas sp., which was associated with the Japanese seaweed Diginea sp.. All the amino acid residues of c-PLAI were reported to be L-configured. […] Later, c-PLAI was successfully synthesized using a convergent solution-phase method. ...

Bacillus subtilis = conditions: c-PLAI isolated from marine Pseudomonas sp.; cited from earlier work
From the text: as §1

Vibrio anguillarum = conditions: c-PLAI isolated from marine Pseudomonas sp.; cited from earlier work
From the text: as §1

Staphylococcus aureus = conditions: c-PLAI isolated from marine Pseudomonas sp.; cited from earlier work
From the text: as §1

Escherichia coli = conditions: c-PLAI isolated from marine Pseudomonas sp.; cited from earlier work
From the text: as §1

Micrococcus luteus = conditions: c-PLAI isolated from marine Pseudomonas sp.; cited from earlier work
From the text: as §1

C. albicans ATCC 10231 = conditions: ATCC 10231, 18 h
Description: (§2) Tools and materials were sterilized in an autoclave for 15 min at 121°C. Fungal culture was grown in agar media (Potato Dextrose agar) by picking some fungal colony using an inoculating loop, followed by incubation at 30°C for 24–48 h. Fungal culture was then suspended in liquid media (Potato Dextrose Broth). The suspended fungal culture was then incubated for 24–48 h at 30°C. The suspended fungal culture was then incubated at 30°C for 24 h and standardized equal to 0.5 Mc Farland (2 × 10^8 CFU ml^−1). The culture was diluted into the concentration of 5 × 10^5 CFU ml^−1.
(§3) Six tetrapeptides and six cyclotetrapeptides were dissolved in DMSO 2% with a concentration of 1 µg mL^−1. Each solution was dissolved gradually. Subsequently, 12 sample solutions, ciprofloxacin, nystatin, ketoconazole and DMSO 2% were incubated on a 96-well microplate at 37°C for 18 h. The result was interpreted using a spectrophotometer, with a wavelength of 600 nm. MIC was measured as the percentage of microbial inhibition and cell death.

B. cereus ATCC 11778 = assay: microbe, parasite or virus in culture; conditions: ATCC 11778, 18 h
Description: (§4) Tools and materials were sterilized in an autoclave for 15 min at 121°C. Bacterial culture was grown in agar media (Mueller Hinton agar) by picking some bacterial colony using an inoculating loop, followed by incubation at 37°C for 24 h. Bacterial culture was then suspended in liquid media (Mueller Hinton Broth). The suspended bacterial culture was then incubated at 37°C for 24 h and standardized equal to 0.5 Mc Farland (2 × 10^8 CFU ml^−1). The culture was diluted into the concentration of 5 × 10^5 CFU ml^−1.
as §3

E. coli ATCC 11229 = assay: microbe, parasite or virus in culture; conditions: ATCC 11229, 18 h
Description: as §4, §3

S. aureus ATCC 6538 = assay: microbe, parasite or virus in culture; conditions: ATCC 6538, 18 h
Description: as §4, §3

K. pneumonia ATCC 2357 = assay: microbe, parasite or virus in culture; conditions: ATCC 2357, 18 h
Description: as §4, §3

Pseudomonas aeruginosa = conditions: synthetic product of solution-phase synthesis; strain not given; cited from earlier work
Description: as §1, with “... || The antimicrobial properties of all linear and cyclic tetrapeptides were evaluated (table 3). […] The lack of information regarding the microbial strains used in the previous report led us to the assumption that the use of different strains in the assay could lead to a differen ...” for “...”

[2] = test system: Trichophyton mentagrophytes; conditions: synthetic product of solution-phase synthesis; strain not given; cited from earlier work
Description: as §1, with “... || The antimicrobial properties of all linear and cyclic tetrapeptides were evaluated (table 3). […] The lack of information regarding the microbial strains used in the previous report led us to the assumption that the use of different strains in the assay could lead to a differen ...” for “...”

Candida albicans = conditions: synthetic product of solution-phase synthesis; strain not given; cited from earlier work
Description: as §1, with “... || The antimicrobial properties of all linear and cyclic tetrapeptides were evaluated (table 3). […] The lack of information regarding the microbial strains used in the previous report led us to the assumption that the use of different strains in the assay could lead to a differen ...” for “...”

Klebsiella pneumoniae = conditions: synthetic product of solution-phase synthesis; strain not given; cited from earlier work
Description: as §1, with “... || The antimicrobial properties of all linear and cyclic tetrapeptides were evaluated (table 3). […] The lack of information regarding the microbial strains used in the previous report led us to the assumption that the use of different strains in the assay could lead to a differen ...” for “...”

T. mentagrophyte = assay: microbe, parasite or virus in culture; conditions: 18 h
Description: as §2, §3

SMILES: CC[C@H](C)[C@H](NC(=O)[C@@H]1CCCN1C(=O)[C@H](CC(C)C)NC(=O)[C@@H]1CCCN1)C(=O)O [H-Pro-Leu-Pro-Ile-OH]
- ring closure, isolated yield [1]: 53%

SMILES: CC[C@H](C)[C@H](NC(=O)[C@@H](NC(=O)[C@H](CC(C)C)NC(=O)[C@@H]1CCCN1)C(C)C)C(=O)O [H-Pro-Leu-Val-Ile-OH]
- ring closure, isolated yield [1]: 52%

SMILES: CC[C@H](C)[C@H](NC(=O)[C@H](C)NC(=O)[C@H](CCCCNC(=O)OC(C)(C)C)NC(=O)[C@@H]1CCCN1)C(=O)O [H-Pro-Lys(Boc)-Ala-Ile-OH]
- ring closure, isolated yield [1]: 43%

SMILES: CC[C@H](C)[C@H](NC(=O)[C@H](Cc1ccccc1)NC(=O)[C@H](CCCCNC(=O)OC(C)(C)C)NC(=O)[C@@H]1CCCN1)C(=O)O [H-Pro-Lys(Boc)-Phe-Ile-OH]
- ring closure, isolated yield [1]: 50%

SMILES: CC[C@H](C)[C@@H]1NC(=O)[C@H](C)NC(=O)[C@H](CC(C)C)NC(=O)[C@@H]2CCCN2C1=O [c-PLAI, cyclo(pro-leu-ala-ile)] (cyclo(PLAI))
- minimum inhibitory concentration (MIC) Microsporum andouinii (Microsporum andouinii): 6 µg/mL (≈ 15.2 µM)
- antibacterial activity against Bacillus subtilis (Bacillus subtilis): inactive
- antibacterial activity against Vibrio anguillarum (Vibrio anguillarum): inactive
- antibacterial activity against Staphylococcus aureus (Staphylococcus aureus): inactive
- antibacterial activity against Escherichia coli (Escherichia coli): inactive
- antibacterial activity against Micrococcus luteus (Micrococcus luteus): inactive
- minimum inhibitory concentration (MIC) C. albicans ATCC 10231 (C. albicans ATCC 10231): >1000 µg/mL
- minimum inhibitory concentration (MIC) B. cereus ATCC 11778 (B. cereus ATCC 11778): 125 µg/mL (≈ 317 µM)
- minimum inhibitory concentration (MIC) E. coli ATCC 11229 (E. coli ATCC 11229): 250 µg/mL (≈ 634 µM)
- minimum inhibitory concentration (MIC) S. aureus ATCC 6538 (S. aureus ATCC 6538): >1000 µg/mL
- minimum inhibitory concentration (MIC) K. pneumonia ATCC 2357 (K. pneumonia ATCC 2357): 500 µg/mL (≈ 1270 µM)
- minimum inhibitory concentration (MIC) Pseudomonas aeruginosa (Pseudomonas aeruginosa): 6 µg/mL (≈ 15.2 µM)
- minimum inhibitory concentration (MIC) Trichophyton mentagrophytes [2]: 6 µg/mL (≈ 15.2 µM)
- minimum inhibitory concentration (MIC) Candida albicans (Candida albicans): 6 µg/mL (≈ 15.2 µM)
- minimum inhibitory concentration (MIC) Klebsiella pneumoniae (Klebsiella pneumoniae): 6 µg/mL (≈ 15.2 µM)
- minimum inhibitory concentration (MIC) T. mentagrophyte (T. mentagrophyte): 125 µg/mL (≈ 317 µM)
